Reference: US11963939B2, “Use of N-acetylcysteine to treat central nervous system disorders” (Neuronasal, Inc., priority 2017, dated 2024)
Like-named read-outs stand apart in the source and are kept apart here.

Legend:
primary cortical neurons = assay: cells; assay type: cell-based, mouse; settings: for Protection against hemin-induced toxicity (in words): MTT
Experimental: Primary cortical neuronal cultures: Primary cortical neurons were collected from embryonic (E15) CD1 mice. The cortices of the mice were dissected, homogenized, and plated in minimum essential medium containing 10% fetal bovine serum (FBS), 5% horse serum, and 1% penicillin/streptomycin in 96-well plates, 6-well plates, or 10-cm dishes. The neurons were maintained at 37° C. with 5% CO2. All experiments were conducted 24 hours after plating.
In vitro ICH model: Ferroptosis is a type of programmed cell death that is dependent on iron, and is characterized by the accumulation of lipid peroxides. Ferroptosis is genetically and biochemically distinct from other forms of regulated cell death such as apoptosis. Ferroptosis is initiated by the failure of the glutathione-dependent antioxidant defenses, resulting in unchecked lipid peroxidation and eventual cell death.
Cell death was induced in primary cortical neurons by treating the neurons with hemin, a blood breakdown product. For the neuroprotection studies, cells were treated with hemin (100 μM) in the presence of NAC (0.1 mM to 1mM), 6-hydroxy-2,5,7,8-tetramethylchroman-2-carboxylic acid (trolox; 0.1 μM to 100 μM), β-carotene (0.1 μM to 100 μM) α-lipoic acid (0.01 mM to 2 mM), glutathione ethyl ester (1 mM to 10 mM), oxothiazolidine-4-carboxylate (1 mM to 10 mM), cystamine (0.1 μM to 10 μM), or nordihydroguaiaretic acid (0.1 μM to 10 μM). Cell viability was analyzed 24 h after treatment. The cells were rinsed with warm phosphate-buffered saline (PBS) and assessed using an MTT assay. The fidelity of the MTT assays in measuring viability was verified by calcein-AM/ethidium homodimer-1 staining (Live/Dead assay).
The ability of NAC to protect cells was investigated in a hemin model of hemorrhagic stroke. The in vitro model of ICH involved the administration of hemin, a breakdown product of hemoglobin from lysed blood, to trigger cell death. Treatment of primary cortical neurons with 100 μM hemin induced widespread cell death through a ferroptotic mechanism, which was quantified with MTT and qualitatively observed using live/dead staining. Living cells were labeled with calcein-AM, and dead cells were labeled with ethidium homodimer. […] Scale bars: 100 μm.
A systematic pharmacological screening of oxidized lipid species inhibitors in the context of hemin-induced cell death was performed in primary cortical neurons. Primary cortical neurons were co-treated with hemin and a non-specific or enzymatic lipid peroxidation inhibitor. The MTT assays were performed 18 h following the co-treatment.

[1] = tested on: collagenase-induced mouse model of ICH; assay: In vivo collagenase-induced mouse model of ICH (Fluoro-Jade staining, corner task, adhesive tape removal task, hematoma size)
Experimental: In vivo collagenase-induced mouse model of ICH: Male C57BL/6 mice (8 to 10 weeks of age) or mice (10 to 12 weeks of age) were anesthetized with isoflurane (2% to 5%) and placed on a stereotaxic frame. During the procedure, the animal's body temperature was maintained at 37° C. with a homeothermic blanket. 1 mL of collagenase (0.075 IU) was infused into the right striatum at a flow rate of 0.120 μL/min using a Nanomite® syringe pump and a syringe. Relative to the bregma point, the stereotaxic coordinates of the injection were: lateral, −0.20; anteroposterior, 0.62; and dorsoventral, −0.40. In control animals, 1 mL of saline was infused. The treatment group received NAC (75 mg/kg or 300 mg/kg in normal saline, I.P.) once a day for 7 days starting at 2 h after collagenase infusion. For combinatorial studies, NAC (40 mg/kg, I.P.) and PGE 2 (10 μM, ICV) were administered to the mice 2 h after the collagenase injection, and then NAC (40 mg/kg) was administered once daily for 7 days. The control groups received the vehicle (normal saline) alone. The animals were randomized to sham or ICH groups. The identities of the mice that received vehicle or NAC were masked to surgeons who performed the experiments. […] Proper postoperative care was provided until the animals recovered completely.
Behavioral analysis: The corner task assessed integrated sensorimotor function in the stimulation of vibrissae (sensory neglect) and rearing (motor response). Mice were placed between two cardboard pieces that formed a corner with a 30° angle. While maintaining the 30° angle, the boards were gradually moved toward the mouse until the mouse approached the corner, reared upward, and turned 180° to face the open end. The direction (left or right) in which the mouse turned was recorded for each trial. Ten trials were performed for each mouse.
For the sensory neglect task (adhesive tape removal task), adhesive tape was placed on the planter region of the forward paw (right and left) of each mouse. The time from which the tape was applied to when the mouse successfully removed the tape was recorded for each paw. A maximum of 300 s for each paw was allowed.
Fluoro-Jade® B staining: Neurodegeneration of cells was assessed in mice with collagenase-induced ICH using Fluoro-Jade® B staining. 40 μM brain sections were mounted on gelatin-coated slides and dried at room temperature overnight. The sections were immersed in a graded series of alcohol solutions before being immersed in a 0.06% potassium permanganate (KMnO4) solution for 15 min. Sections were washed with water before being immersed in a 0.001% Fluoro-Jade® staining solution with gentle shaking in the dark for 30 min. The sections were then washed with water and dried overnight at room temperature in the dark before being dehydrated and coverslipped with DPX. Fluoro-Jade® B staining was examined within perihematoma or hematoma regions using a fluorescence microscope. Quantification of Fluoro-Jade® B staining was performed using three brain sections (anterior to posterior of hematoma) using Metamorph analysis.
The vehicle or NAC was then administered daily up to 7 days following the ictus. Neuronal loss was determined using a non-specific marker of neurodegeneration, Fluoro-Jade® staining. […] Mouse behavior was assessed using a corner task (spatial neglect) and an adhesive tape removal task (sensory neglect). Mouse behavior was assessed on day 1, 3, and 7 after the induction of ICH.

recombinant ALOX5 = biological target: T1, recombinant ALOX5 (Homo sapiens, UniProt P09917); assay: Lipoxygenase UV/Vis-based IC50 assay with recombinant ALOX5; assay type: biochemical; settings: test tube assay
T1 sequence (P09917 1-674): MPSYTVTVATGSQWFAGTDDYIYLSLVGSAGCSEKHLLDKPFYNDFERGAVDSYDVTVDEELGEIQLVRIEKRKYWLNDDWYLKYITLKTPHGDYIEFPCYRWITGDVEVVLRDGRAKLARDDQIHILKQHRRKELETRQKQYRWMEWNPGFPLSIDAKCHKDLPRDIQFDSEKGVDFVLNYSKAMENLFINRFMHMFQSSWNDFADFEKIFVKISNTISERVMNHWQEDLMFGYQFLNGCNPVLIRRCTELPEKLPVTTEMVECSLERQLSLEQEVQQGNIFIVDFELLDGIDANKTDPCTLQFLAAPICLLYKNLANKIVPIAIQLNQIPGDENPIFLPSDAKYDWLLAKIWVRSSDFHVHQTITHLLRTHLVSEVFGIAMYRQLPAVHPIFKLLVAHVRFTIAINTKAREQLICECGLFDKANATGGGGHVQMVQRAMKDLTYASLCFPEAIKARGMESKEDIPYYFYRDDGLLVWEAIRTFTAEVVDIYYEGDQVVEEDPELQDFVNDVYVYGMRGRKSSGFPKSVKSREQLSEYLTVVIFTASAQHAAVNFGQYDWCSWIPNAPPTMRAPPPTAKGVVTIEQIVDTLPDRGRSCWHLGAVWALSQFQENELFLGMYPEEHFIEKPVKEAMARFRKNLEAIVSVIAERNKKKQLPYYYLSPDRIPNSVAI
Experimental: Lipoxygenase UV/Vis-based IC50 assay: Inhibition potencies were determined by following the formation of conjugated diene products, 5-HpETE [ε=27000 M^−1 cm^−1 for AA turnover) at 234 nm using a UV/Vis spectrophotometer. All reaction mixtures were 2 mL in volume, and the reaction mixtures were constantly stirred using a magnetic stir bar at room temperature (23° C.). All reactions were carried out in a buffer containing 200 μM ATP and 10 μM AA. The AA concentration of a sample was verified by full turnover with soybean-1 lipoxygenase and quantifying the product concentration. Inhibitors were stored in DMSO at −20° C. Enzymatic reactions were initiated by adding approximately 100 nM-300 nM ammonium sulfate-precipitated wildtype enzyme. IC50 values were obtained by determining the enzymatic rate at a minimum of five inhibitor concentrations, plotting the enzymatic rate against inhibitor concentration, and performing a hyperbolic saturation curve fit. Inhibitor concentrations were assayed in duplicate or triplicate.
Significance was determined by two-way ANOVA and Bonferroni's post hoc test.

lipid protein adducts = assay: Hemin-induced lipid protein adduct formation (Bt-AA, streptavidin-HRP Western blot) in primary neurons; assay type: cell-based, mouse; settings: for AA-protein adduct formation: non-protective doses: NAC 0.1 mM, vitamin E 1 μM, zileuton 1 μM; for Lipid protein adduct formation: protective doses: NAC 1 mM, vitamin E 10 μM, zileuton 10 μM
Experimental: Electrophilic attack by ALOX5 products could alter cellular protein-mediated signaling to trigger cell death. Arachidonic acid (AA) tagged with biotin (Bt-AA) was used to monitor the formation of covalent protein adducts. To test whether hemin was sufficient to catalyze the formation of protein-reactive lipid species, primary neurons were treated with hemin at concentrations of 5 μM-50 μM for 4 h. Lipid protein adducts were detected by Western blots probed with Streptavidin-HRP. Bt-AA incorporation into protein increased with increasing concentrations of hemin, and significant lipid protein adducts were detected at 50 μM hemin. […] The blot is representative from replicates of three experiments. The arrow indicates the decrease in lipid protein adduct formation.

[2] = primary cortical neurons, 100 μM hemin
[3] = Mus musculus, Primary cortical neuron, protection from 100 μM hemin, MTT (Table 2), read-out: EC50
[4] = protection from 100 μM hemin, MTT (Table 2), read-out: EC50
[5] = NAC 40 mg/kg i.p. and/or PGE2 10 μM ICV, days 1, 3, 7

CC(=O)Oc1ccccc1C(=O)O [Aspirin]
Protection against hemin-induced toxicity (in words) (primary cortical neurons; [2]): failed to protect against hemin toxicity

CCCCS(=N)(=O)CCC(N)C(=O)O (centres unmarked) [BSO, buthionine sulfoximine]
Effect on NAC-induced protection from hemin (primary cortical neurons; co-treatment with NAC and BSO): reversed NAC-induced protection

CC(=O)N(O)C/C=C/c1cccc(Oc2ccccc2)c1 [BW A4C]
EC50 (primary cortical neurons; 100 μM hemin, primary cortical neurons, read-out: EC50 for reduction of hemin-induced toxicity/ferroptosis): 5 µM

CC(C=Cc1cccc(Oc2ccc(F)cc2)c1)N(O)C(N)=O (centres unmarked) [BW B70]
Protection against hemin-induced toxicity (in words) (primary cortical neurons; [2]): significantly reduced hemin-induced toxicity

NCCSSCCN [Cystamine]
EC50 (primary cortical neurons; [3]): 7.5 µM
Protection against hemin-induced toxicity (in words) (primary cortical neurons; [2]): prevented hemin-induced death as effectively as NAC

CCOC(=O)CNC(=O)[C@H](CS)NC(=O)CC[C@H](N)C(=O)O [Glutathione ethyl ester]
Protection against hemin-induced toxicity (in words) (primary cortical neurons; [2]): prevented hemin-induced death as effectively as NAC
EC50 (primary cortical neurons; [4]): 2500 µM

COc1ccc2c(c1)c(CC(=O)O)c(C)n2C(=O)c1ccc(Cl)cc1 [Indomethacin]
Protection against hemin-induced toxicity (in words) (primary cortical neurons; [2]): failed to protect against hemin toxicity

C#CCOc1ccccc1CCCCCC(=O)NS(C)(=O)=O [MS-PPOH]
Protection against hemin-induced toxicity (in words) (primary cortical neurons; [2]): failed to protect against hemin toxicity

CCC(=O)NC(c1cccs1)c1cc([N+](=O)[O-])c2cccnc2c1O (centres unmarked) [NCTT-956]
Protection against hemin-induced toxicity (in words) (primary cortical neurons; [2]): failed to protect against hemin toxicity

CC(Cc1ccc(O)c(O)c1)C(C)Cc1ccc(O)c(O)c1 (centres unmarked) [Nordihydroguaiaretic acid]
EC50 (primary cortical neurons; [3]): 5 µM
Protection against hemin-induced toxicity (in words) (primary cortical neurons; [2]): prevented hemin-induced death as effectively as NAC

O=C1NC(C(=O)O)CS1 (centres unmarked) [Oxothiazolidine-4-carboxylate]
Protection against hemin-induced toxicity (in words) (primary cortical neurons; [2]): prevented hemin-induced death as effectively as NAC
EC50 (primary cortical neurons; [4]): 2500 µM

c1ccc2c(c1)SCc1c-2[nH]c2ccccc12 [PD146176]
Protection against hemin-induced toxicity (in words) (primary cortical neurons; [2]): failed to protect against hemin toxicity

CCCCC[C@H](O)/C=C/[C@H]1[C@H](O)CC(=O)[C@@H]1C/C=C\CCCC(=O)O [PGE2, prostaglandin E2]
Sensory neglect (adhesive tape removal task) behavioral deficits [1, 5]: no effect
Spatial neglect (corner task) behavioral deficits [1, 5]: no effect

CC(c1cc2ccccc2s1)N(O)C(N)=O (centres unmarked) [Zileuton]
EC50 (primary cortical neurons; Mus musculus, Primary cortical neuron, 100 μM hemin, primary cortical neurons, read-out: EC50 for reduction of hemin-induced toxicity/ferroptosis): 7 µM
Inhibition of ALOX5 activity (recombinant ALOX5): effective in inhibiting ALOX5
AA-protein adduct formation (lipid protein adducts): did not decrease AA-protein adduct formation
Lipid protein adduct formation (lipid protein adducts): decreased lipid protein adduct formation

CCCCC(C)(C)[C@H](O)/C=C/[C@H]1[C@H](O)CC(=O)[C@@H]1C/C=C\CCCC(=O)O [dmPGE2, 16,16-dimethyl PGE2]
Protection against hemin-induced toxicity (in words) (primary cortical neurons; [2]): dose-dependently abrogated hemin-induced toxicity
Neuronal degeneration in perihematomal regions (Fluoro-Jade staining) ([1]; NAC 40 mg/kg i.p. daily 7 days and/or dmPGE2 10 μM ICV 2 h post-injury): no significant effect

Cc1c(C)c2c(c(C)c1O)CCC(C)(C(=O)O)O2 (centres unmarked) [trolox, 6-hydroxy-2,5,7,8-tetramethylchroman-2-carboxylic acid]
Protection against hemin-induced toxicity (in words) (primary cortical neurons; [2]): abrogated hemin-induced toxicity in a dose-dependent manner

Cc1c(C)c2c(c(C)c1O)CC[C@@](C)(CCC[C@H](C)CCC[C@H](C)CCCC(C)C)O2 [vitamin E, α-tocopherol]
AA-protein adduct formation (lipid protein adducts): did not decrease AA-protein adduct formation
Lipid protein adduct formation (lipid protein adducts): decreased lipid protein adduct formation

O=C(O)CCCCC1CCSS1 (stereo not drawn) [α-Lipoic acid, α-lipoic acid]
Protection against hemin-induced toxicity (in words) (primary cortical neurons; [2]): failed to prevent hemin toxicity at any dose examined

CC1=C(/C=C/C(C)=C/C=C/C(C)=C/C=C/C=C(C)/C=C/C=C(C)/C=C/C2=C(C)CCCC2(C)C)C(C)(C)CCC1 [β-carotene]
Protection against hemin-induced toxicity (in words) (primary cortical neurons; [2]): protected against hemin-induced toxicity
Inhibition of ALOX5 activity (recombinant ALOX5): did not inhibit ALOX5 activity

Hemin
% Viability (primary cortical neurons): 50.14%
EC50 (primary cortical neurons; hemin itself (toxic stimulus), Table 2 EC50 column, read-out: EC50): 100 µM
